Assay results reported in EP2266984A1, “Pyrido[2,3-d]pyrimidines as Wnt antagonists for treatment of cancer and arthritis” (Deutsches Krebsforschungszentrum Stiftung des öffentlichen …, priority 2009, dated 2010).

What was measured:
[1] = system: Wnt signalling pathway; assay: Wnt-sensitive reporter gene assay (6xTCF-luciferase, pTOP-FLASH) in Hek293T cells; assay type: cell-based; conditions: for Normalized Wnt pathway inhibitory activity: 24 h
Experimental: To screen for small-molecule modulators of the Wnt signalling pathway, a reporter gene based assay describing the modulation of the TCF4 transcription factor was used. More specifically 4000 Hek293T cells were seeded into 384 high density plates. 24h after seeding a Wnt-sensitive reporter (6xTCF-luciferase (Firefly) (pTOP-FLASH; "Armadillo coactivates transcription driven by the product of the Drosophila segment polarity gene dTCF", Cell, 1997, 88(6), pages 789-99)) and constitutively expressed control reporter (Renilla luciferase pCMV-RL) were transfected into Hek293T. Wnt signaling was stimulated by cotransfecting mouse Wnt1, mouse Frizzled 8 and human LRP6 according to "Casein kinase 1 gamma couples Wnt receptor activation to cytoplasmic signal transduction", Nature, 2005, 438(7069), pages 867-872. 24 h after pathway stimulation compounds were added at a concentration of 10 microM and allowed to incubate for 24 h. For the evaluation of the IC50 the compound was applied in increasing concentrations yielding final concentrations per well of 5nM - 100 microM.

[2] = system: HS68; assay: Cell line specific cytotoxicity, count of Hoechst labeled nuclei, HS68 fibroblasts; assay type: cell-based, human; conditions: for Normalized cell count (HS68): normal cells, at least 72 hr
Experimental: For examination of cell line-specific cytotoxicity, compounds were applied to human colorectal cancer cells (HCT116, denoted (1); SW480, denoted (2); Dld-1, denoted (3)) and human fibroblasts (HFF-1, denoted (4); HS-68, denoted (5)), cultured in Mc Coy's (1) and Dulbecco's Modified Eagles Medium ((2)-(5)), supplemented with 10% ((1)-(3)) and 20% ((4), (5)) fetal calf serum and 1% penicillin/streptomycin. Cells were grown in T75 flasks at 37 °C, 5% CO2 and trypsinized when 60-80% confluent by adding 2 ml of 0.25% Trypsin-EDTA solution. Cells were then re-suspended into culture medium yielding approx. 750 cells, suspended in 45 microl medium, were plated into each well of a black 384-well plate for fluorescence imaging experiments. […] Compound incubation was terminated by (a) fixation and (b) permeabilisation of cells, followed by (c) fluorescence labeling of cell nuclei for cytometric quantification or by immunocytochemistry for microscopic evaluation of cell morphology. The three steps were performed by replacing the solution of the previous step in each well of a 384-well plate by (a) 30 microl PBS (phosphate buffered saline) containing 5% PFA (paraformaldehyde), (b) 30 microl PBS containing 0.2% TritonX-100 and (c) 10 microl PBS containing Hoechst-33342 for cytometry or Hoechst-33342, FITC-(fluorescein isothiocyanate-)labeled alpha-tubulin antibodies and TRITC-(tetramethylrhodamine isothiocyanate-)labeled phalloidin for microscopy. Solutions were incubated for 15 (a,b) and 30 min (c) in the dark at room temperature. Cells were washed twice between each step with 30 microl PBS. The assay system was miniaturized and adapted to automated workflow using liquid-handling robotics.
Cell line-specific cytotoxicity was quantified by counting the number of Hoechst labeled nuclei per well of a 384-well plate using a plate cytometer. Data obtained with the cytometer was analysed using standard data analysis software.
Identified hits were further evaluated by visual inspection of fluorescence micrographs obtained from imaging using a conventional fluorescence microscope.

[3] = system: human colon carcinoma cells HCT116; assay: Antiproliferative activity against HCT116, count of Hoechst labeled nuclei; assay type: cell-based; conditions: for Normalized cell count (HCT 116): HCT116 colon carcinoma cells
Experimental: For examination of cell line-specific cytotoxicity, compounds were applied to human colorectal cancer cells (HCT116, denoted (1); SW480, denoted (2); Dld-1, denoted (3)) and human fibroblasts (HFF-1, denoted (4); HS-68, denoted (5)), cultured in Mc Coy's (1) and Dulbecco's Modified Eagles Medium ((2)-(5)), supplemented with 10% ((1)-(3)) and 20% ((4), (5)) fetal calf serum and 1% penicillin/streptomycin. Cells were grown in T75 flasks at 37 °C, 5% CO2 and trypsinized when 60-80% confluent by adding 2 ml of 0.25% Trypsin-EDTA solution. Cells were then re-suspended into culture medium yielding approx. 750 cells, suspended in 45 microl medium, were plated into each well of a black 384-well plate for fluorescence imaging experiments. 24 - 36 hr later 5 microl compound solution (100 microM compound dissolved in ultra pure water containing 1% DMSO), were added to achieve a final concentration of 10 microM and were incubated for at least 72 hr. Compound incubation was terminated by (a) fixation and (b) permeabilisation of cells, followed by (c) fluorescence labeling of cell nuclei for cytometric quantification or by immunocytochemistry for microscopic evaluation of cell morphology. The three steps were performed by replacing the solution of the previous step in each well of a 384-well plate by (a) 30 microl PBS (phosphate buffered saline) containing 5% PFA (paraformaldehyde), (b) 30 microl PBS containing 0.2% TritonX-100 and (c) 10 microl PBS containing Hoechst-33342 for cytometry or Hoechst-33342, FITC-(fluorescein isothiocyanate-)labeled alpha-tubulin antibodies and TRITC-(tetramethylrhodamine isothiocyanate-)labeled phalloidin for microscopy. Solutions were incubated for 15 (a,b) and 30 min (c) in the dark at room temperature. Cells were washed twice between each step with 30 microl PBS. The assay system was miniaturized and adapted to automated workflow using liquid-handling robotics.
Cell line-specific cytotoxicity was quantified by counting the number of Hoechst labeled nuclei per well of a 384-well plate using a plate cytometer. Data obtained with the cytometer was analysed using standard data analysis software. […]
The examination of the antiproliferative activity against human colon carcinoma cells HCT116 was carried out in analogy to example 203. […] Compounds of the present invention have potent antiproliferative acivity against human colon carcinoma cells as shown for HCT116 in Table 6.

CCOC(=O)c1c(C)nc2c(c(N3CCN(C/C=C/c4ccccc4)CC3)nc(=O)n2-c2ccccc2)c1-c1ccccc1 [Example 153, 7-Methyl-2-oxo-1,5-diphenyl-4-[4-((E)-3-phenyl-allyl)-piperazin-1-yl]-1,2-dihydro-pyrido[2,3-d]pyrimidine-6-carboxylic acid ethyl ester]
Normalized Wnt pathway inhibitory activity ([1]; 0.005 microM): 0.8000
Normalized Wnt pathway inhibitory activity ([1]; 0.046 microM): 1.0868
Normalized Wnt pathway inhibitory activity ([1]; 0.137 microM): 0.9813
Normalized Wnt pathway inhibitory activity ([1]; 0.412 microM): 0.8173
Normalized Wnt pathway inhibitory activity ([1]; 1.235 microM): 0.5333
Normalized Wnt pathway inhibitory activity ([1]; 3.704 microM): 0.2410
Normalized Wnt pathway inhibitory activity ([1]; 11.111 microM): 0.1023
Normalized Wnt pathway inhibitory activity ([1]; 33.333 microM): 0.0518
Normalized Wnt pathway inhibitory activity ([1]; 100.000 microM): 0.0132
IC50 ([1]; Homo sapiens, HEK-293T, 6xTCF-luciferase, 5nM - 100 microM, 24 h incubation, read-out: IC50 of the Wnt pathway inhibitory activity): 1.6 ± 0.9 µM
Normalized cell count (HS68) ([2]; 0.005 microM): 1
Normalized cell count (HS68) ([2]; 0.015 microM): 1.0005
Normalized cell count (HS68) ([2]; 0.046 microM): 0.9849
Normalized cell count (HS68) ([2]; 0.137 microM): 0.9755
Normalized cell count (HS68) ([2]; 0.412 microM): 0.9186
Normalized cell count (HS68) ([2]; 1.235 microM): 0.9639
Normalized cell count (HS68) ([2]; 3.704 microM): 0.9349
Effect on normal cells (HS-68) ([2]; 10 microM, HS-68 cell line): not affected
Normalized cell count (HS68) ([2]; 11.111 microM): 0.9432
Normalized cell count (HS68) ([2]; 33.333 microM): 0.826
Normalized cell count (HS68) ([2]; 100.000 microM): 0.2108
Normalized cell count (HCT 116) ([3]; 0.005 microM): 1
Normalized cell count (HCT 116) ([3]; 0.015 microM): 0.9124
Normalized cell count (HCT 116) ([3]; 0.046 microM): 0.9327
Normalized cell count (HCT 116) ([3]; 0.137 microM): 0.9534
Normalized cell count (HCT 116) ([3]; 0.412 microM): 0.8371
Normalized cell count (HCT 116) ([3]; 1.235 microM): 0.7255
Normalized cell count (HCT 116) ([3]; 3.704 microM): 0.538
Normalized cell count (HCT 116) ([3]; 11.111 microM): 0.1546
Normalized cell count (HCT 116) ([3]; 33.333 microM): 0.09126
Normalized cell count (HCT 116) ([3]; 100.000 microM): 0.1143
IC50 ([3]; Homo sapiens, HCT-116, HCT116, read-out: IC50 of the antiproliferation activity): 3.1 ± 0.6 µM
